Measured values taken from ChEMBL document CHEMBL5107956, “Natural products from mangrove sediments-derived microbes: Structural diversity, bioactivities, biosynthesis, and total synthesis” (Eur J Med Chem, 2022).
≈ marks a conversion by molar mass, not a printed value.

What was measured:
[1] = Inhibition of influenza A virus Neuraminidase N3 incubated for 10 mins by fluorescence based analysis
Acetylcholinesterase = Acetylcholinesterase (Homo sapiens, UniProt P22303); experiment: Inhibition of AChE (unknown origin) using acetylthiocholine iodide as substrate measured after 30 mins by Ellman's method
[2] = target: Phosphotyrosine-protein phosphatase PTPB (Mycobacterium tuberculosis, UniProt P96830); experiment: Inhibition of N-terminal His6-tagged Mycobacterium tuberculosis H37Rv PTPB using 6,8-difluoromethylumbelliferyl phosphate as substrate incubated for 30 mins by fluorescence based analysis
RAW264.7 = experiment: Antiinflammatory activity against LPS-induced mouse RAW264.7 cells assessed as inhibition of NO production measured after 24 hrs […]; type: functional, cell-based; conditions: RAW264.7, 24 h
[3] = test system: Pseudopestalotiopsis theae; experiment: Antifungal activity against Pestalotiopsis theae assessed as fungal cell growth inhibition; type: functional; conditions: read-out: ED50 (the source's name)
NCI-H1975 = experiment: Cytotoxicity against human NCI-H1975 cells assessed as cell growth inhibition measured after 72 hrs by MTT assay; type: functional, cell-based; conditions: NCI-H1975, 72 h
HL-60 [4] = experiment: Cytotoxicity against human HL-60 cells assessed as cell growth inhibition measured after 72 hrs by MTT assay; type: functional, cell-based; conditions: HL-60, 72 h
HeLa [5] = experiment: Cytotoxicity against human HeLa cells assessed as cell growth inhibition measured after 48 hrs by WST-8 assay; type: functional, cell-based
[6] = Cytotoxicity against human ACC-MESO-1 cells assessed as cell growth inhibition measured after 48 hrs by WST-8 assay; type: functional, cell-based; conditions: ACC-MESO-1, 48 h
K562 = experiment: Cytotoxicity against human K562 cells assessed as inhibition of cell growth by MTT assay; type: functional, cell-based
[7] = target: Angiotensin-converting enzyme (Homo sapiens, UniProt P12821); experiment: Inhibition of ACE (unknown origin) using hippuryl-histidyl-leucine as substrate pre-incubated with compound for 10 mins followed by substrate addition measured after 60 mins by HPLC analysis
[8] = test system: Colletotrichum gloeosporioides; experiment: Antifungal activity against Colletotrichum gloeosporioides assessed as inhibition of fungal growth measured after 72 hrs by micro plate reader analysis; type: functional
SF-268 = experiment: Cytotoxicity against human SF-268 cells assessed as cell growth inhibition; type: functional, cell-based
MCF7 = experiment: Cytotoxicity against human MCF7 cells assessed as cell growth inhibition; type: functional, cell-based
NCI-H460 = experiment: Cytotoxicity against human NCI-H460 cells assessed as cell growth inhibition; type: functional, cell-based
HL-60 [9] = experiment: Antiproliferative activity against human HL-60 cells assessed as cell growth inhibition by MTT assay; type: functional, cell-based
P388 = experiment: Cytotoxicity against mouse P388 cells assessed as cell growth inhibition by MTT assay; type: functional, cell-based
[10] = target: Rho-associated protein kinase 2 (Homo sapiens, UniProt O75116); experiment: Inhibition of ROCK2 (unknown origin) by HTRF kinase assay
Meloidogyne incognita = experiment: Nematicidal activity against Meloidogyne incognita; type: functional; conditions: read-out: LD50 (the source's name)
Meloidogyne javanica = experiment: Nematicidal activity against Meloidogyne javanica; type: functional; conditions: read-out: LD50 (the source's name)
[11] = Cytotoxicity against human ACC-MESO-1 cells assessed as cell growth inhibition by MTT assay; type: functional, cell-based
HeLa [12] = experiment: Cytotoxicity against human HeLa cells assessed as cell growth inhibition by MTT assay; type: functional, cell-based
Proteus vulgaris = experiment: Antibacterial activity against Proteus vulgaris MTCC 7299 assessed as bacterial growth inhibition incubated for 48 to 72 hrs by agar plate diffusion assay; type: functional; conditions: time 48-72 hrs

Phosphotyrosine-protein phosphatase PTPB, sequence (P96830 whole entry): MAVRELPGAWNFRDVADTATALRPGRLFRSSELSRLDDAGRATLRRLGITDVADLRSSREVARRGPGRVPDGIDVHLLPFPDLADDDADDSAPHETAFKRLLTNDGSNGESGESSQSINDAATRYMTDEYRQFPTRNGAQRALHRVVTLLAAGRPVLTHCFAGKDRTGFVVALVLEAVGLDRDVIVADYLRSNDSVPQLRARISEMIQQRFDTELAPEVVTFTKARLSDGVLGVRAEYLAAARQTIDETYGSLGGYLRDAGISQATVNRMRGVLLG
Angiotensin-converting enzyme, sequence (P12821 whole entry): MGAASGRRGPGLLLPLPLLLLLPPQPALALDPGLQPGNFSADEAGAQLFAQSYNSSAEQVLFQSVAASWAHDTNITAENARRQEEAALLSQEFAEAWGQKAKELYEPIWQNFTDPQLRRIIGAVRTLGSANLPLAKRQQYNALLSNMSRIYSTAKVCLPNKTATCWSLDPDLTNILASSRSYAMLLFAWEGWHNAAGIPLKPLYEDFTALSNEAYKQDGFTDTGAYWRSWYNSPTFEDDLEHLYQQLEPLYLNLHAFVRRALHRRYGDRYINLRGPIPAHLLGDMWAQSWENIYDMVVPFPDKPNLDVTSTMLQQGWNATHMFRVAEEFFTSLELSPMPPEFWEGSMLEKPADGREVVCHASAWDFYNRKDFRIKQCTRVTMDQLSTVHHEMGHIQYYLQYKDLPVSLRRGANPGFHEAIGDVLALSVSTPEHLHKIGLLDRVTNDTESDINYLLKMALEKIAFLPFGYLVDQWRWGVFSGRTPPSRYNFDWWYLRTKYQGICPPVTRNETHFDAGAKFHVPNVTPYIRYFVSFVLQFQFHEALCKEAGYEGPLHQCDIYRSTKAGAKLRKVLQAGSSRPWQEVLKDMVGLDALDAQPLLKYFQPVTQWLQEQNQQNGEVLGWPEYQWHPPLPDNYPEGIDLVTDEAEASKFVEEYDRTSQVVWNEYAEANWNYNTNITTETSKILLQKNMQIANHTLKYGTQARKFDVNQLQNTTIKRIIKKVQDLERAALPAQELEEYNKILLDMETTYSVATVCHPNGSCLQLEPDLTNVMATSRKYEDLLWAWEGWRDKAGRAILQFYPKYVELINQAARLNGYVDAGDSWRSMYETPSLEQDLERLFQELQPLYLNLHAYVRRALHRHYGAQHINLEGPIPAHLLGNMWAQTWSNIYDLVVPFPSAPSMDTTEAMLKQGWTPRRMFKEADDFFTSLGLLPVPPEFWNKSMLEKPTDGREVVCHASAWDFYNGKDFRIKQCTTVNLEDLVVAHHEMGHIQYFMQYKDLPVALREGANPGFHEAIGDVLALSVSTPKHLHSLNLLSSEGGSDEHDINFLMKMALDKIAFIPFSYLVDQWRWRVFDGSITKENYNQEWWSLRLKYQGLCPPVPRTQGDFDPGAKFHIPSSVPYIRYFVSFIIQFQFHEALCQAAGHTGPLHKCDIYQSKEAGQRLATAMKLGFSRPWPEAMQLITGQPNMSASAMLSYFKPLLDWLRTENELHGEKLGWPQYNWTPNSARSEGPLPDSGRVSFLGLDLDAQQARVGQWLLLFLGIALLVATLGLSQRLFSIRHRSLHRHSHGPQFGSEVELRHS
Acetylcholinesterase, sequence (P22303 whole entry): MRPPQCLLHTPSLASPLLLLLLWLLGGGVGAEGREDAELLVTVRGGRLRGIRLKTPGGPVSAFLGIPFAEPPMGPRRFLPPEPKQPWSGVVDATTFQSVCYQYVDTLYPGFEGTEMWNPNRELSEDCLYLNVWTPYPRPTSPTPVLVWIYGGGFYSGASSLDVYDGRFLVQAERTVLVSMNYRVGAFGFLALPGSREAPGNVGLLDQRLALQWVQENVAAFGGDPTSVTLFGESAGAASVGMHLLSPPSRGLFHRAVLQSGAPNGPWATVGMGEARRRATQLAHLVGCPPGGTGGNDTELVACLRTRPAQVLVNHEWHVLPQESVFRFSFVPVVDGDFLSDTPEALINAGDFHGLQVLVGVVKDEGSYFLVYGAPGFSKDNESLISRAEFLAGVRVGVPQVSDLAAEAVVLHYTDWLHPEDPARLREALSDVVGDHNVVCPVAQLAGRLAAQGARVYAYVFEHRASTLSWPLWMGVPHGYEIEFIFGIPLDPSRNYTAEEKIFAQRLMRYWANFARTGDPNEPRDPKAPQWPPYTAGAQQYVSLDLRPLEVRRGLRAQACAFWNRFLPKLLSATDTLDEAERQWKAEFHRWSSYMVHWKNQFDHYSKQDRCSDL
Rho-associated protein kinase 2, sequence (O75116 whole entry): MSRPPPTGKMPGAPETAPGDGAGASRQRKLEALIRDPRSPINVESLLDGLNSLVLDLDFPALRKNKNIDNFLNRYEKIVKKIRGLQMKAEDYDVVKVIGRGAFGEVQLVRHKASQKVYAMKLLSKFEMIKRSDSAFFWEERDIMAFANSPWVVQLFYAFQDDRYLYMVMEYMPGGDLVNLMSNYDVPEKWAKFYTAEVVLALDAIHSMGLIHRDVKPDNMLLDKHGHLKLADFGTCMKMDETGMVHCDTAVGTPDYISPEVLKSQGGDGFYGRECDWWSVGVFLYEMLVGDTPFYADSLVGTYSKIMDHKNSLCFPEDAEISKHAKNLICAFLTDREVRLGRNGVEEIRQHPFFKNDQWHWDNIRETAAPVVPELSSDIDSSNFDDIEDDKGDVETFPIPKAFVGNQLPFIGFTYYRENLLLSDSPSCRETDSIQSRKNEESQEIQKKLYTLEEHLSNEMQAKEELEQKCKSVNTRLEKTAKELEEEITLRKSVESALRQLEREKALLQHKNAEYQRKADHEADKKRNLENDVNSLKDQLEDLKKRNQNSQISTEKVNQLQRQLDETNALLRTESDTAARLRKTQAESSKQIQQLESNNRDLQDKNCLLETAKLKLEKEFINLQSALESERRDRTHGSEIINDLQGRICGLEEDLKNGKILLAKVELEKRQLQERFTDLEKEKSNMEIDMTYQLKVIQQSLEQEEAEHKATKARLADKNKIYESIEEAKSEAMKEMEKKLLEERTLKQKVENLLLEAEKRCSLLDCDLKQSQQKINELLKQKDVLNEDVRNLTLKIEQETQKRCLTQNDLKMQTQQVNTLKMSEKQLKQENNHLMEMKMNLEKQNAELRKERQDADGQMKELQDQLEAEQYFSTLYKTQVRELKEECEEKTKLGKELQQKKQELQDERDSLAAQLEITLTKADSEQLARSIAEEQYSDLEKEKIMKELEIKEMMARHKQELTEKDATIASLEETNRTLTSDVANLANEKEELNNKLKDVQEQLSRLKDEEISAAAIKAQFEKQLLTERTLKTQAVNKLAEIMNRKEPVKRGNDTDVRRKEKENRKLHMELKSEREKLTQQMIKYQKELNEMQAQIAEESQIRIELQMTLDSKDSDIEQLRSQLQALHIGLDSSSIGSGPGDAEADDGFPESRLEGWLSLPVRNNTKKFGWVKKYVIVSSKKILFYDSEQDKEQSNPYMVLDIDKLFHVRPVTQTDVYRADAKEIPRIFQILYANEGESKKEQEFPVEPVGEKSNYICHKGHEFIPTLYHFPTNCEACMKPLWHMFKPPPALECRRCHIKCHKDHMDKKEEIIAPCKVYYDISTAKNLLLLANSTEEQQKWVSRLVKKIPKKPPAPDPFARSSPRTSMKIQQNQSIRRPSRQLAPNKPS

CN1C(=O)c2cc(O)ccc2NC(=O)C12O[C@H]2c1ccccc1 (some centres undefined)
IC50 [1]: 5.02 µM

C[C@H]1CN2C(=O)[C@]34Cc5c([nH]c6c7c(ccc56)OC(C)(C)CC7=O)C(C)(C)[C@@H]3C[C@@]2(C1)C(=O)N4
IC50 (Acetylcholinesterase): 58 µM

CC(C)[C@@H](C)/C=C/[C@@H](C)[C@@]1(C)C[C@H]2C3=C4[C@@H](C=C5C[C@@H](O)CC[C@]5(C)[C@H]4CC[C@@]31C)[C@H](C(=O)O)[C@H]2C(=O)O
IC50 [2]: 15.1 µM
IC50 (RAW264.7): 4.5 µM

CC(=C\C(=O)O)/C=C(\C)CC(C)/C=C/CC[C@H]1OC(=O)[C@@H]1CO (some centres undefined)
EC50 [3]: 38.1 µg/mL (≈ 118 µM)

C/C=C/C1=CC(=O)[C@]2(C(=O)c3c(OC)cc(OC)cc3C(=O)OC)O[C@@H]2O1
IC50 (NCI-H1975): 3.7 µM
IC50 (HL-60 [4]): 3.7 µM

O=C1CCC(=O)O[C@@H]2[C@@H](O)[C@H](O)[C@@H](COC(=O)CCC(=O)O[C@@H]3[C@@H](O)[C@H](O)[C@@H](CO1)O[C@@H]3O)O[C@@H]2O
IC50 (HeLa [5]): 37 µM
IC50 [6]: 48 µM

CC(=C\C(=O)O)/C=C(\C)CCCCCC[C@H]1OC(=O)[C@@H]1CO
EC50 [3]: 42.3 µg/mL (≈ 136 µM)

C[C@@H]1OC(=O)[C@@H](O)[C@@H](C)OC(=O)[C@H](C)[C@H]1O
IC50 (K562): 1.36 µM

CC(=O)C[C@@]1(O)C(=O)C2=C3O[C@H](C)C(C)(C)[C@]3(O)C(=O)c3c(C)cc(O)c(c32)C1=O
IC50 [7]: 3.1 µM

C/C=C/C1=CC(=O)[C@@]2(C(=O)c3c(OC)cc(OC)cc3C(=O)OC)O[C@H]2O1
IC50 (NCI-H1975): 3.7 µM
IC50 (HL-60 [4]): 3.7 µM

CC(=O)O[C@@H]1C[C@H](C)[C@@]23CC=C(C)[C@H](C2)C[C@@](C)(O)[C@@H]13
MIC [8]: 0.125 µg/mL (≈ 0.449 µM)

CC(C)[C@@H](C)/C=C/[C@@H](C)[C@H]1CC[C@H]2C3=CC(=O)N(CCO)C3=CC[C@]12C
IC50 (SF-268): 7.9 µg/mL (≈ 22.1 µM)
IC50 (MCF7): 7.5 µg/mL (≈ 21 µM)
IC50 (NCI-H460): 7.8 µg/mL (≈ 21.8 µM)

C=CC(C)(C)c1[nH]c2ccccc2c1/C=C1\NC(=O)C2(CC(C)C=CC2CCc2c(O)cc(CC=C(C)C)c(O)c2C=O)NC1=O (centres undefined)
IC50 (HL-60 [9]): 4.8 µM
IC50 (P388): 1.83 µM

CCOC(=O)[C@@H](Cc1c(O)cc(C)c2c(O)c3c(cc12)[C@@H](O)CCC3=O)C(=O)OC
IC50 [10]: 0.96 µM

CCCCCC[C@@H](O)[C@@H]1C(=O)O[C@H](C)[C@@H](O)/C=C/C=C/C=C/C=C/C=C(\C)[C@@H](O)[C@H](O)[C@@H](O)C[C@H](O)C[C@H](O)C[C@@H](O)C[C@@H](O)C[C@@H]1O
LC50 (Meloidogyne incognita): 7.64 µg/mL (≈ 11.2 µM)
LC50 (Meloidogyne javanica): 7.83 µg/mL (≈ 11.4 µM)

CC(/C=C/C1CC1)=C\[C@@H]1[C@@H](OC(=O)CC(C)C)[C@](C)(O)[C@@H]2[C@H]3O[C@H]3CCN12
IC50 [11]: 39 µM
IC50 (HeLa [12]): 29 µM

CC1=CC[C@]23C[C@@H]1C[C@@](C)(O)[C@H]2[C@H](O)C[C@@H]3C
MIC [8]: 1 µg/mL (≈ 4.23 µM)

CC(C)[C@@H](C)/C=C\[C@@H](C)[C@@]1(C)C[C@H]2C3=C4[C@@H](C=C5C[C@@H](O)CC[C@]5(C)[C@H]4CC[C@@]31C)[C@H](C(=O)O)[C@H]2C(=O)O
IC50 [2]: 30.1 µM
IC50 (RAW264.7): 3.6 µM

CCCOC(=O)c1ccccc1C(=O)OC(C)CC (centres undefined)
MIC (Proteus vulgaris): 4 µg/mL (≈ 15.1 µM)
